Each block holds one molecule with its values, some of them ahead of it.
Columns and labels:
[1] = molecular target: T1, Alpha-mannosidase (Canavalia ensiformis) (UniProt C0HJB3); experiment: Inhibition of jack bean alpha-mannosidase using p-nitrophenyl glycoside as substrate assessed as release of p-nitrophenol at 1000 uM by spectrometric analysis relative to control
T1 sequence (whole entry): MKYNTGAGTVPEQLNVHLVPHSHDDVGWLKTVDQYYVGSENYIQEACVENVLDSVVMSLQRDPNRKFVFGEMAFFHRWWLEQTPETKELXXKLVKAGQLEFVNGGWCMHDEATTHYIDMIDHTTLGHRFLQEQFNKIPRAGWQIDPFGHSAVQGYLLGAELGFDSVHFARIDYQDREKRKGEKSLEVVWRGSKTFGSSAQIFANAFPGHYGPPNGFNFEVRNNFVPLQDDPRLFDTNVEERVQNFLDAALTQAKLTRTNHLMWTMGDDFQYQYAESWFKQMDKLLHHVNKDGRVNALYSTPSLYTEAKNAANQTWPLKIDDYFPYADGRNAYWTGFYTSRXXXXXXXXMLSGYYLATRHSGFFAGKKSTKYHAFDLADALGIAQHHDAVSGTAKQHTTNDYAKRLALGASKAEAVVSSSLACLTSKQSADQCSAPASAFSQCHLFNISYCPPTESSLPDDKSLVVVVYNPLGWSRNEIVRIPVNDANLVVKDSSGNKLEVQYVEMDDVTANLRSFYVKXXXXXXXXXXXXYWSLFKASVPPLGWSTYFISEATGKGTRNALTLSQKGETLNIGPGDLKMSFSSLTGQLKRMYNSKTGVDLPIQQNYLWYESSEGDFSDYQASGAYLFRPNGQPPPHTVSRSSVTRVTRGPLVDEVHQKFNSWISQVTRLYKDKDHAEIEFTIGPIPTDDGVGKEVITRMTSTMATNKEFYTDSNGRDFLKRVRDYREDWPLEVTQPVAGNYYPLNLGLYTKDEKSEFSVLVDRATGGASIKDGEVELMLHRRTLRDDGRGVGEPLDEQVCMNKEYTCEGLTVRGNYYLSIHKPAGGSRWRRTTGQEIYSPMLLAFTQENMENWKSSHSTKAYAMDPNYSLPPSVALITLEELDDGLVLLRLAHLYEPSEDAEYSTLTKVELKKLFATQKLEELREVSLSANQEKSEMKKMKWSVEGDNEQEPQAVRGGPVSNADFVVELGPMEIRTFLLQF

[2] = molecular target: T2, Tissue alpha-L-fucosidase (Bos taurus) (UniProt Q2KIM0); experiment: Inhibition of bovine kidney alpha-L-fucosidase using p-nitrophenyl glycoside as substrate assessed as release of p-nitrophenol at 1000 uM by spectrometric analysis relative to control
T2 sequence (whole entry): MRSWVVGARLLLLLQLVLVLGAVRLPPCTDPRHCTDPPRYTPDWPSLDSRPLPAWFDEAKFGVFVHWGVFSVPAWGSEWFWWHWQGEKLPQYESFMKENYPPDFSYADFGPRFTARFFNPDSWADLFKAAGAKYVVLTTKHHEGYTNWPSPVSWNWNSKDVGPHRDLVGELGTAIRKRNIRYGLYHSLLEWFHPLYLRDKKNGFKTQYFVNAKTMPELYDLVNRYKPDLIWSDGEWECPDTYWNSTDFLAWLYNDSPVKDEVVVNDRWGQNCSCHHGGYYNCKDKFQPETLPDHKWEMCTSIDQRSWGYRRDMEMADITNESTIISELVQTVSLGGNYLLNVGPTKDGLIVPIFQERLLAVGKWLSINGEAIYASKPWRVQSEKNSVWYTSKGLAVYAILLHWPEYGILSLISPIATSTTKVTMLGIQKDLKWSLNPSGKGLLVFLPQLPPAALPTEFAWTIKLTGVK

[3] = Inhibition of Escherichia coli beta-glucuronidase using p-nitrophenyl glycoside as substrate assessed as release of p-nitrophenol by spectrometric analysis
[4] = molecular target: Alpha-galactosidase (Coffea arabica) (UniProt Q42656); experiment: Inhibition of coffee bean alpha-galactosidase using p-nitrophenyl glycoside as substrate assessed as release of p-nitrophenol at 1000 uM by spectrometric analysis relative to control
Sequence of Alpha-galactosidase (Coffea arabica) (Q42656 16-378 limits assumed): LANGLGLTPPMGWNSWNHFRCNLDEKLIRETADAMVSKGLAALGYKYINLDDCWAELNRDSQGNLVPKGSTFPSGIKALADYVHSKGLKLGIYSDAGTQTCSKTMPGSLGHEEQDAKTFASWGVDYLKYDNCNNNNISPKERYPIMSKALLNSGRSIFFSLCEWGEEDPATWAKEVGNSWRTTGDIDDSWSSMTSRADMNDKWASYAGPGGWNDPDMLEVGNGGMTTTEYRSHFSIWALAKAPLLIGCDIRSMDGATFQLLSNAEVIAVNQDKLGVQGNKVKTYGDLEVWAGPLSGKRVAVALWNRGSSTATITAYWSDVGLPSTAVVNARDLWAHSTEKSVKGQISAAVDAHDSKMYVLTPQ

[5] = Inhibition of bovine liver beta-galactosidase using p-nitrophenyl glycoside as substrate assessed as release of p-nitrophenol by spectrometric analysis; parameters: species or system Bos taurus
Alpha-glucosidase = Alpha-glucosidase (Saccharomyces cerevisiae S288c, UniProt P53341+P38158+P07265); experiment: Inhibition of yeast alpha-glucosidase using p-nitrophenyl glycoside as substrate assessed as release of p-nitrophenol by spectrometric analysis; assay type: protein assay
[6] = Inhibition of almond beta-glucosidase using p-nitrophenyl glycoside as substrate assessed as release of p-nitrophenol by spectrometric analysis; parameters: species or system Prunus dulcis
[7] = Inhibition of snail beta-mannosidase using p-nitrophenyl glycoside as substrate assessed as release of p-nitrophenol by spectrometric analysis; parameters: species or system Helix pomatia
[8] = Inhibition of Aspergillus niger amyloglucosidase using p-nitrophenyl glycoside as substrate assessed as release of p-nitrophenol by spectrometric analysis
[9] = molecular target: T3, Lysosomal acid glucosylceramidase (Homo sapiens, UniProt P04062); experiment: Inhibition of human lysosome beta-glucosidase using p-nitrophenyl glycoside as substrate assessed as release of p-nitrophenol by spectrometric analysis
T3 sequence (P04062 whole entry): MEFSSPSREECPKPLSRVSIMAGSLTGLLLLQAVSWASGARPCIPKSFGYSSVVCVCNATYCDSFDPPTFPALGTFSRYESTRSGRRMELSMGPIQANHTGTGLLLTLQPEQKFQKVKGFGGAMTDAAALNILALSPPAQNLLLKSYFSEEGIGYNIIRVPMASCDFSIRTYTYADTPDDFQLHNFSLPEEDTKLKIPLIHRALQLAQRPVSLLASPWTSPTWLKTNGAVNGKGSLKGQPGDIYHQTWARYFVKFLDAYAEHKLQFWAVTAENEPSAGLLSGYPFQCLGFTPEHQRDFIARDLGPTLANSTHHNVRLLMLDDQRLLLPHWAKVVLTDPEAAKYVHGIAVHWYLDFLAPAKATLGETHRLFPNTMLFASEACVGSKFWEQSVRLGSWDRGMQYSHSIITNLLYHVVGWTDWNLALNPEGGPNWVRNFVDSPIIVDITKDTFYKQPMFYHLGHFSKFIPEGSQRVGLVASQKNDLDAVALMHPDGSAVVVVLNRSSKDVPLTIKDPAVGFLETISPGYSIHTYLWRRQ

MKN-45 = experiment: cells; details: Homo sapiens, MKN-45, 48 h
[10] = Inhibition of rice alpha-glucosidase using p-nitrophenyl glycoside as substrate assessed as release of p-nitrophenol by spectrometric analysis; parameters: species or system Oryza sativa
[11] = molecular target: Lysosomal alpha-glucosidase (Homo sapiens, UniProt P10253); experiment: Inhibition of human lysosome alpha-glucosidase using p-nitrophenyl glycoside as substrate assessed as release of p-nitrophenol by spectrometric analysis
[12] = molecular target: T4, Glucosylceramidase (Bos taurus) (UniProt Q2KHZ8); experiment: Inhibition of bovine liver beta-glucosidase using p-nitrophenyl glycoside as substrate assessed as release of p-nitrophenol at 1000 uM by spectrometric analysis relative to control
T4 sequence (whole entry): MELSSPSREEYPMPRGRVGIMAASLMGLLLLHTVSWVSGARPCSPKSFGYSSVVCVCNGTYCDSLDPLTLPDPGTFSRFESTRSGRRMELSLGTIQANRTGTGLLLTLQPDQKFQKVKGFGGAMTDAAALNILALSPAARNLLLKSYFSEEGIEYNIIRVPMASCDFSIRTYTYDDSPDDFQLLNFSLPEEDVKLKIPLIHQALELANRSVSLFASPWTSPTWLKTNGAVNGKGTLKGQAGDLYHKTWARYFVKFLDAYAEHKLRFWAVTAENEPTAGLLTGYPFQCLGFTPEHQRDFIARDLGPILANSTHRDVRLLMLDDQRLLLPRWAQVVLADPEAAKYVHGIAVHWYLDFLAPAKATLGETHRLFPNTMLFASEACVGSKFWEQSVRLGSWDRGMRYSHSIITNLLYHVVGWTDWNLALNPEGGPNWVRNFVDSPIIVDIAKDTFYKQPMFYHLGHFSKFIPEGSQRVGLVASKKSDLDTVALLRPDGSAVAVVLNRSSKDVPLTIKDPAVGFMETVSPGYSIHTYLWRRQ

inhibition [1]: 0% | inhibition [2]: 1.1% | IC50 [3]: 35 µM | inhibition [4]: 4.11% | IC50 [5]: 3.9 µM
Compound: OCCC[C@H](O)CCCCCCCC[C@@H](O)[C@@H]1N[C@@H](CO)[C@H](O)[C@H]1O

IC50 [6]: 0.69 µM | inhibition [1]: 0% | inhibition [2]: 0.86% | IC50 [3]: 2.7 µM | IC50 [7]: 71 µM | inhibition [4]: 4.5% | IC50 [5]: 0.007 µM | IC50 [8]: 73 µM
Compound: OCCC[C@H](O)CCCCCCCC[C@@H](O)[C@H]1N[C@H](CO)[C@@H](O)[C@@H]1O

IC50 [6]: 0.53 µM | inhibition [1]: 0% | inhibition [2]: 6.5% | IC50 [3]: 3.3 µM | IC50 [7]: 62 µM | inhibition [4]: 4.4% | IC50 [5]: 0.005 µM | IC50 [8]: 62 µM
Compound: OCCC[C@@H](O)CCCCCCCC[C@@H](O)[C@H]1N[C@H](CO)[C@@H](O)[C@@H]1O

IC50 [6]: 1.8 µM | inhibition [1]: 0% | inhibition [2]: 0.43% | IC50 [3]: 2.5 µM | inhibition [4]: 4.6% | IC50 [5]: 0.046 µM
Compound: OCCC[C@@H](O)CCCCCCCC[C@H](O)C1N[C@H](CO)[C@@H](O)[C@@H]1O (single isomer, unassigned)

IC50 [6]: 2.8 µM | inhibition [1]: 0% | inhibition [2]: 6% | IC50 [3]: 2.9 µM | inhibition [4]: 4.7% | IC50 [5]: 0.062 µM
Compound: OCCC[C@H](O)CCCCCCCC[C@H](O)[C@H]1N[C@H](CO)[C@@H](O)[C@@H]1O

inhibition [1]: 0% | inhibition [2]: 8.6% | IC50 [3]: 46 µM | IC50 (Alpha-glucosidase): 49 µM | inhibition [4]: 4.1% | IC50 [5]: 2.3 µM
Compound: Cl.OCCC[C@@H](O)CCCCCCCC[C@@H](O)[C@@H]1N[C@@H](CO)[C@H](O)[C@H]1O

IC50 [6]: 92 µM | IC50 [10]: 11 µM | inhibition [1]: 2.2% | inhibition [2]: 4.3% | IC50 [3]: 56 µM | inhibition [4]: 4.8% | IC50 [5]: 0.74 µM
Compound: OCCC[C@@H](O)CCCCCCCC[C@H](O)[C@@H]1N[C@@H](CO)[C@H](O)[C@H]1O

IC50 [10]: 7.3 µM | inhibition [1]: 0% | inhibition [2]: 5.9% | IC50 [3]: 29 µM | inhibition [4]: 4.9% | IC50 [5]: 5.1 µM
Compound: OCCC[C@H](O)CCCCCCCC[C@H](O)[C@@H]1N[C@@H](CO)[C@H](O)[C@H]1O

IC50 [10]: 1.2 µM | inhibition [12]: 46.5% | inhibition [1]: 2.2% | inhibition [2]: 0% | inhibition [4]: 0.3% | IC50 [5]: 50 µM
Compound: OCCC[C@H](O)CCCCCCCCC[C@@H]1N[C@@H](CO)[C@H](O)[C@H]1O

The next lines start with the molecule.

Compound: CCCCCCCC[C@@H](O)[C@H]1N[C@H](CO)[C@@H](O)[C@@H]1O.Cl
IC50 (Alpha-glucosidase): 28 µM

Compound: CCCCCCCC[C@H](O)[C@H]1N[C@H](CO)[C@@H](O)[C@@H]1O.Cl
IC50 (Alpha-glucosidase): 101 µM

Compound: CCCCCCC[C@@H](O)[C@@H]1N[C@@H](CO)[C@H](O)[C@H]1O
inhibition [1]: 0% | inhibition [4]: 0% | IC50 [5]: 29 µM

Compound: OCCC[C@@H](O)CCCCCCCCC[C@H]1N[C@H](CO)[C@@H](O)[C@@H]1O
inhibition [1]: 2.5% | inhibition [2]: 0% | IC50 [3]: 86 µM | inhibition [4]: 0% | IC50 [5]: 2.3 µM

Compound: CCCCCCC[C@@H](O)[C@H]1N[C@H](CO)[C@@H](O)[C@@H]1O
IC50 [6]: 0.12 µM | inhibition [1]: 1.7% | IC50 [7]: 96 µM | inhibition [4]: 0% | IC50 [9]: 14 µM | IC50 [5]: 0.015 µM | IC50 [8]: 91 µM

Compound: CCCCCC[C@H](O)[C@H]1N[C@H](CO)[C@@H](O)[C@@H]1O
IC50 [6]: 0.64 µM | inhibition [1]: 2.1% | inhibition [4]: 0% | IC50 [5]: 0.36 µM

Compound: CCCCCCCCC[C@@H](O)[C@H]1N[C@H](CO)[C@@H](O)[C@@H]1O.Cl
IC50 (Alpha-glucosidase): 21 µM

Compound: CC(=O)O[C@H]1C(=O)[C@@]2(C)[C@H]([C@H](OC(=O)c3ccccc3)[C@]3(O)C[C@H](OC(=O)[C@H](O)[C@@H](NC(=O)c4ccccc4)c4ccccc4)C(C)=C1C3(C)C)[C@]1(OC(C)=O)CO[C@@H]1C[C@@H]2O [PACLITAXEL]
EC50 (MKN-45): 0.003 µM

Compound: CCCCCC[C@@H](O)[C@H]1N[C@H](CO)[C@@H](O)[C@@H]1O
IC50 [6]: 0.2 µM | inhibition [1]: 2.1% | inhibition [4]: 0% | IC50 [9]: 73 µM | IC50 [5]: 0.05 µM | IC50 [8]: 92 µM

Compound: CCCCCCCCC[C@H](O)[C@H]1N[C@H](CO)[C@@H](O)[C@@H]1O.Cl
IC50 (Alpha-glucosidase): 53 µM

Compound: CCCCCCC[C@H](O)[C@@H]1N[C@@H](CO)[C@H](O)[C@H]1O
IC50 [10]: 6 µM | inhibition [1]: 2.6% | IC50 [11]: 2.1 µM | inhibition [4]: 0% | IC50 [5]: 41 µM

Compound: CCCCCCC[C@H](O)[C@H]1N[C@H](CO)[C@@H](O)[C@@H]1O
IC50 [6]: 0.54 µM | inhibition [1]: 0.2% | inhibition [4]: 0% | IC50 [5]: 0.39 µM
